Measurements published in patent US9212168B2 (priority 2011, dated 2015).

How the values were obtained:
HCV genotype 1b replicon = HCV genotype 1b replicon assay (Renilla luciferase readout); assay type: cell-based, hepatitis C virus; conditions: for Genotype 1b: HCV genotype 1b replicon; for EC50: Hepatitis C virus, read-out: Genotype 1b
Outline: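 Huh7-derived APC144 subgenomic replicon cells carrying Renilla luciferase–NS3-NS5B, seeded 10,000/well without G418, then treated with compound dose-responses for 48 h at 37 °C (0.5% DMSO final). Luciferase signal fitted by 4-parameter model to EC50, reported as pEC50.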

HCV genotype 1a replicon = HCV genotype 1a replicon assay (NS3 protease activity readout); assay type: cell-based, hepatitis C virus; conditions: for Genotype 1a: HCV genotype 1a replicon; for EC50: Hepatitis C virus, read-out: Genotype 1a, HCV genotype 1a replicon
Outline: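 Genotype 1a subgenomic replicon cells (APC89, Huh7.5) were treated with compound dose-responses in G418-free medium, 0.5% DMSO final, for 48 or 72 hours at 37° C. Lysate NS3/4a protease activity measured with 15 μM FRET substrate, 20 min at 37° C (ex 340/em 509 nm); EC50 by 4-parameter fit.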

Row | SMILES | Genotype 1b (HCV genotype 1b replicon) | Genotype 1a (HCV genotype 1a replicon) | EC50 (HCV genotype 1b replicon) [nM] | EC50 (HCV genotype 1a replicon) [nM]
1 | COC(=O)N[C@H](C(=O)N1C[C@@H](C)C[C@H]1c1nc(-c2ccc(-c3ccc(C(=O)Nc4ccc(N5CCN(C(=O)C(C)(C)C)C[C@H]5C)nc4)cc3OC(F)(F)F)cc2)c(F)[nH]1)C(C)C [Example 4-42] | D (D represents pEC50>10 (EC50<0.1 nM)) | D (D represents pEC50>10 (EC50<0.1 nM)) |  | 
2 | COCC1(C(=O)N2CCN(c3ccc(C(=O)Nc4cc(OC(F)(F)F)c(-c5ccc(-c6c[nH]c([C@@H]7C[C@H](OC)CN7C(=O)[C@@H](NC(=O)OC)C7CCOCC7)n6)cc5)cc4Cl)cn3)[C@H](C)C2)CCC1 [Example 28-22] | D (D represents pEC50>10 (EC50<0.1 nM)) | D (D represents pEC50>10 (EC50<0.1 nM)) |  | 
3 | COC(=O)N[C@H](C(=O)N1C[C@@H](OC)C[C@H]1c1nc(-c2ccc(-c3cc(F)c(NC(=O)c4ccc(N5CCN(C(=O)C(C)(C)C)C[C@H]5C)nc4)cc3OC(F)(F)F)cc2)c[nH]1)C(C)C [Example 27-3] | D (D represents pEC50>10 (EC50<0.1 nM)) | D (D represents pEC50>10 (EC50<0.1 nM)) |  | 
4 | CNC(=O)N1CCN(c2ccc(C(=O)Nc3cc(C(F)(F)F)c(-c4ccc(-c5c[nH]c([C@@H]6C[C@H](C)CN6C(=O)[C@@H](NC(=O)OC)C(C)C)n5)cc4)cc3Cl)cn2)[C@H](C)C1 [Example 1-30] | D (D represents pEC50>10 (EC50<0.1 nM)) | D (D represents pEC50>10 (EC50<0.1 nM)) |  | 
5 | COC(=O)N[C@H](C(=O)N1C[C@@H](C)C[C@H]1c1nc(-c2ccc(-c3ccc(C(=O)Nc4ccc(N5CCN(C(=O)C(C)(C)C)C[C@H]5C)nc4)cc3)cc2)c(Cl)[nH]1)C1CCOCC1 [Example 22-10] | D (D represents pEC50>10 (EC50<0.1 nM)) | D (D represents pEC50>10 (EC50<0.1 nM)) |  | 
6 | COC(=O)N[C@H](C(=O)N1C[C@@H](C)C[C@H]1c1nc(-c2ccc(-c3ccc(C(=O)Nc4ccc(N5CCN(C(=O)C(C)(C)C)C[C@H]5C)nc4)cc3)cc2)c[nH]1)C1CCOCC1 [Example 22-1] | D (D represents pEC50>10 (EC50<0.1 nM)) | D (D represents pEC50>10 (EC50<0.1 nM)) |  | 
7 | COCC(=O)N1CCC[C@@]1(C)C(=O)N1C[C@@H](C)N(c2ccc(C(=O)Nc3cc(OC(F)(F)F)c(-c4ccc(-c5c[nH]c([C@@H]6C[C@H](OC)CN6C(=O)[C@@H](NC(=O)OC)C6CCOCC6)n5)cc4)cc3Cl)cn2)C[C@@H]1C [Example 28-17] | D (D represents pEC50>10 (EC50<0.1 nM)) | D (D represents pEC50>10 (EC50<0.1 nM)) |  | 
8 | COC(=O)N[C@H](C(=O)N1CC2(C[C@H]1c1nc(-c3ccc(-c4ccc(C(=O)Nc5ccc(N6CCN(C(=O)C7CC7(C)C)C[C@H]6C)nc5)cc4)cc3)c[nH]1)OCCO2)C(C)C (some centres unmarked) [Example 6-1] |  |  | < 0.1 | 0.1 to 1
9 | COC(=O)N[C@H](C(=O)N1C[C@@H](C)C[C@H]1c1nc(-c2ccc(-c3cc(F)c(NC(=O)c4ccc(N5CCN(C(=O)C(C)(C)CO)C[C@H]5C)nc4)cc3OC(F)(F)F)cc2)c[nH]1)C(C)C [Example 1-101] | D (D represents pEC50>10 (EC50<0.1 nM)) | D (D represents pEC50>10 (EC50<0.1 nM)) |  | 
10 | COC(=O)N[C@H](C(=O)N1C[C@@H](C)C[C@H]1c1nc(-c2ccc(-c3ccc(C(=O)Nc4ccc(N5CCN(C(=O)[C@H]6CC6(C)C)C[C@H]5C)nc4)cc3)cc2)c(Cl)[nH]1)C1CCOCC1 [Example 22-11] | D (D represents pEC50>10 (EC50<0.1 nM)) | D (D represents pEC50>10 (EC50<0.1 nM)) |  | 
11 | COC(=O)N[C@H](C(=O)N1C[C@@H](C)C[C@H]1c1nc(-c2ccc(-c3cc(Cl)c(NC(=O)c4ccc(N5CCN(C(=O)C(C)(C)C)C[C@H]5C)nc4)cc3C(F)(F)F)cc2)c[nH]1)C1CCOCC1 [Example 19-2] | D (D represents pEC50>10 (EC50<0.1 nM)) | D (D represents pEC50>10 (EC50<0.1 nM)) |  | 
12 | COC(=O)N[C@H](C(=O)N1[C@@H](C)CC[C@H]1c1nc(-c2ccc(-c3cc(Cl)c(C(=O)Nc4ccc(N5CCN(C(=O)C(C)(C)C)C[C@H]5C)nc4)cc3OC(F)(F)F)cc2)c[nH]1)C1C[C@@H](C)O[C@@H](C)C1 (some centres unmarked) [Example 18-6] | D (D represents pEC50>10 (EC50<0.1 nM)) | D (D represents pEC50>10 (EC50<0.1 nM)) |  | 
13 | COC(=O)N[C@H](C(=O)N1C[C@@H](OC)C[C@H]1c1nc(-c2ccc(-c3cc(Cl)c(NC(=O)c4ccc(N5CCN(C(=O)C(C)(C)CO)C[C@H]5C)nc4)cc3OC(F)(F)F)cc2)c(CO)[nH]1)C1CCOCC1 [Example 28-16] | D (D represents pEC50>10 (EC50<0.1 nM)) | D (D represents pEC50>10 (EC50<0.1 nM)) |  | 
14 | COC(=O)N[C@H](C(=O)N1C[C@@H](OC)C[C@H]1c1nc(-c2ccc(-c3cc(F)c(NC(=O)c4ccc(N5CCN(C(=O)C(C)(C)CO)C[C@H]5C)nc4)cc3OC(F)(F)F)cc2)c[nH]1)C1CCOCC1 [Example 28-3] | D (D represents pEC50>10 (EC50<0.1 nM)) | D (D represents pEC50>10 (EC50<0.1 nM)) |  | 
15 | COC(=O)NC(C(=O)N1CC(C)CC1c1nc(-c2ccc(-c3ccc(NC(=O)c4ccc(N5CCN(C(=O)C(C)(C)C)CC5C)nc4)cc3OC(F)(F)F)cc2)c[nH]1)C1CCOCC1 (centres unmarked) [Example 13-12] | D (D represents pEC50>10 (EC50<0.1 nM)) | D (D represents pEC50>10 (EC50<0.1 nM)) |  | 
16 | COC(=O)N[C@H](C(=O)N1C[C@@H](OC)C[C@H]1c1nc(-c2ccc(-c3cc(Cl)c(NC(=O)c4ccc(N5CCN(C(=O)C(C)(C)C)C[C@H]5C)nc4)cc3OC(F)(F)F)cc2)c(CO)[nH]1)C(C)C [Example 5-18] |  |  | < 0.1 | < 0.1
17 | COC(=O)N[C@H](C(=O)N1C[C@@H](C#N)C[C@H]1c1nc(-c2ccc(-c3cc(Cl)c(NC(=O)c4ccc(N5CCN(C(=O)C(C)(C)CO)C[C@H]5C)nc4)cc3OC(F)(F)F)cc2)c[nH]1)C(C)C [Example 15-12] |  |  | < 0.1 | < 0.1
18 | COC(=O)N[C@H](C(=O)N1C[C@@H](C)C[C@H]1c1nc(-c2ccc(-c3ccc(C(=O)Nc4ccc(N5CCN(C(=O)C(C)(C)CO)C[C@H]5C)nc4)cc3OC(F)(F)F)cc2)c(Cl)[nH]1)C1CCOCC1 [Example 22-8] | D (D represents pEC50>10 (EC50<0.1 nM)) | D (D represents pEC50>10 (EC50<0.1 nM)) |  | 
19 | COC(=O)N[C@H](C(=O)N1C[C@@H](C)C[C@H]1c1nc(-c2ccc(-c3ccc(C(=O)Nc4ccc(N5CCN(C(=O)C(C)(C)C)C[C@H]5C)nc4)cc3OC(F)(F)F)cc2)c(Cl)[nH]1)C1CCOCC1 [Example 22-6] | D (D represents pEC50>10 (EC50<0.1 nM)) | D (D represents pEC50>10 (EC50<0.1 nM)) |  | 
20 | CNC(=O)N1CCC[C@@]1(C)C(=O)N1CCN(c2ccc(NC(=O)c3ccc(-c4ccc(-c5c[nH]c([C@@H]6C[C@H](C)CN6C(=O)[C@@H](NC(=O)OC)C(C)C)n5)cc4)c(OC(F)(F)F)c3)cn2)[C@H](C)C1 [Example 4-6] | D (D represents pEC50>10 (EC50<0.1 nM)) | D (D represents pEC50>10 (EC50<0.1 nM)) |  | 
21 | COC(=O)N[C@H](C(=O)N1C[C@@H](C)C[C@H]1c1nc(-c2ccc(-c3ccc(C(=O)Nc4ccc(N5CCN(C(=O)[C@]6(C)CCCN6C(=O)OC(C)C)C[C@H]5C)nc4)cc3OC(F)(F)F)cc2)c[nH]1)C(C)C [Example 4-5] | D (D represents pEC50>10 (EC50<0.1 nM)) | D (D represents pEC50>10 (EC50<0.1 nM)) |  | 
22 | CNC(=O)N1C[C@@H](C)N(c2ccc(C(=O)Nc3cc(OC(F)(F)F)c(-c4ccc(-c5c[nH]c([C@@H]6C[C@H](C)CN6C(=O)[C@@H](c6ccccc6)N6CCCCC6)n5)cc4)cc3Cl)cn2)C[C@@H]1C [Example 5-9] |  |  | < 0.1 | < 0.1
23 | COC(=O)N[C@H](C(=O)N1C[C@@H](C)C[C@H]1c1nc(-c2ccc(-c3ccc(C(=O)Nc4ccc(N5C[C@H](C)N(C(=O)[C@H]6CCCN6C(=O)C6CC6)C[C@H]5C)nc4)cc3OC(F)(F)F)cc2)c[nH]1)C(C)C [Example 4-18] | D (D represents pEC50>10 (EC50<0.1 nM)) | D (D represents pEC50>10 (EC50<0.1 nM)) |  | 
24 | COC(=O)N[C@H](C(=O)N1C[C@@H](C)C[C@H]1c1nc(-c2ccc(-c3cc(Cl)c(NC(=O)c4ccc(N5CCN(C(=O)C(C)(C)C)C[C@H]5C)nc4)cc3OC(F)(F)F)cc2)c[nH]1)C(C)(C)O [Example 13-5] |  |  | < 0.1 | < 0.1
25 | COC(=O)N[C@H](C(=O)N1C[C@@H](C)C[C@H]1c1nc(-c2ccc(-c3cc(F)c(NC(=O)c4ccc(N5CCN(C(=O)[C@H]6CC6(C)C)C[C@H]5C)nc4)cc3F)cc2)c[nH]1)C(C)C [Example 1-81] | D (D represents pEC50>10 (EC50<0.1 nM)) | D (D represents pEC50>10 (EC50<0.1 nM)) |  | 
26 | COC(=O)N[C@H](C(=O)N1C[C@@H](OC)C[C@H]1c1nc(-c2ccc(-c3ccc(NC(=O)c4ccc(N5CCN(C(=O)C(C)(C)C)C[C@H]5C)nc4)cc3OC(F)(F)F)cc2)c[nH]1)C(C)C [Example 27-8] | D (D represents pEC50>10 (EC50<0.1 nM)) | D (D represents pEC50>10 (EC50<0.1 nM)) |  | 
27 | COC(=O)N[C@H](C(=O)N1C[C@@H](C)C[C@H]1c1nc(-c2ccc(-c3cc(Cl)c(NC(=O)c4ccc(N5CCN(C(=O)C(C)(C)C)C[C@@H]5C)nc4)cc3OC(F)(F)F)cc2)c[nH]1)C1CCOCC1 [Example 20-4] | D (D represents pEC50>10 (EC50<0.1 nM)) | D (D represents pEC50>10 (EC50<0.1 nM)) |  | 
28 | COC(=O)N[C@H](C(=O)N1C[C@@H](OC)C[C@H]1c1nc(-c2ccc(-c3cc(Cl)c(NC(=O)c4ccc(N5C[C@H](C)N(C(=O)C(C)(C)C)C[C@H]5C)nc4)cc3OC(F)(F)F)cc2)c[nH]1)C1CCOCC1 [Example 28-7] | D (D represents pEC50>10 (EC50<0.1 nM)) | D (D represents pEC50>10 (EC50<0.1 nM)) |  | 
